# Biological target: T1, hFXR (Homo sapiens, UniProt Q96RI1)
# T1 construct: expressed in transfected cells; host or cells: CV-1 cells
# T1 sequence (Q96RI1 1-486): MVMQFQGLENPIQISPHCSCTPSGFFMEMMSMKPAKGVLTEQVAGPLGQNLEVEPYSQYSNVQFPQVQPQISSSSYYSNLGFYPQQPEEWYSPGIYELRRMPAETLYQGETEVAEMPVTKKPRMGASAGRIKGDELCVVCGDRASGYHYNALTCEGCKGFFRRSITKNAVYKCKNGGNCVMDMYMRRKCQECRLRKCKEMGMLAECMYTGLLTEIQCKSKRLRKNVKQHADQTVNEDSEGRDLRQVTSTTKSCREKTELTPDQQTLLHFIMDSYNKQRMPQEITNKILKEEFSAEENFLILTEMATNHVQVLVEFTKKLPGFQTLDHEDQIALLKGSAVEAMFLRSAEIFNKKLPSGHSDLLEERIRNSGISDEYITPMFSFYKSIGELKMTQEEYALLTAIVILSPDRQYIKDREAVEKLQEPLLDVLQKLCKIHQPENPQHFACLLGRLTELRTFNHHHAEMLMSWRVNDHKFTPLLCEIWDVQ
# T1 sequence (P19793 1-462 partner): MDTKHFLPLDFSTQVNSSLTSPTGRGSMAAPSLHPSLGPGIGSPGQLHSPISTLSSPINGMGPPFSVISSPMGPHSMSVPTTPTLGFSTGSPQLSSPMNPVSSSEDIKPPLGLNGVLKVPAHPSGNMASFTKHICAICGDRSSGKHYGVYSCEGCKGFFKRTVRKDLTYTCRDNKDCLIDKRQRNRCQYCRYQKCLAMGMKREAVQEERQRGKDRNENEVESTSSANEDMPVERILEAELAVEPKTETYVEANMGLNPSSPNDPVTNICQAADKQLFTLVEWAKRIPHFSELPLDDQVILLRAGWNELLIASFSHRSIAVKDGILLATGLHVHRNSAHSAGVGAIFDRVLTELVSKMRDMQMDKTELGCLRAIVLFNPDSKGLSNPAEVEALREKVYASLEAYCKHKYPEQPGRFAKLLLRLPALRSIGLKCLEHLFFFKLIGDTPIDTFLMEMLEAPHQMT
# Assay: In Vitro FXR Assay (TK): TK-ECRE-luc reporter in transfected CV-1 cells
# Type: cell-based
# Settings: 18 hrs, luminescence, maximum efficacy of <25% of the Fexarmine control classified as '+'
# Procedure, shortened: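 CV-1, transient co-transfection: hFXR + hRXR + TK-ECRE-luc + pCMX-YFP; charcoal-stripped serum. 18 h post-transfection, DMSO serial dilutions of cpd added; 18 h incubation; lysis, luminescence.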
row,SMILES,EC50
1,"COc1ccc([C@H]2CC[C@H](CN(c3cccc(-c4cnn(C5CC5)c4)c3)C(=O)[C@H]3CC[C@H](NC(=O)COCCO)CC3)CC2)cc1C [Compound 32.01, trans-N-(3-(1-Cyclopropyl-1H-pyrazol-4-yl)phenyl)-4-(2-(2-hydroxyethoxy)acetamido)-N-((trans-4-(4-methoxy-3-methylphenyl)cyclohexyl)methyl)cyclohexanecarboxamide]",≤ 250 nM
2,"COc1ccc([C@H]2CC[C@H](CN(c3cccc(-c4cnc(C5CC5)s4)c3)C(=O)[C@H]3CC[C@H](NC(=O)COCCCO)CC3)CC2)cc1C [Compound 32.03, trans-N-(3-(2-Cyclopropylthiazol-5-yl)phenyl)-4-(2-(3-hydroxypropoxy)acetamido)-N-((trans-4-(4-methoxy-3-methylphenyl)cyclohexyl)methyl)cyclohexanecarboxamide]",≤ 250 nM
3,"COc1ccc([C@H]2CC[C@H](CN(c3cccc(-c4cnc(C5CC5)s4)c3)C(=O)[C@H]3CC[C@H](NC(=O)COCCN(C)C)CC3)CC2)cc1C [Compound 32.04, trans-N-(3-(2-Cyclopropylthiazol-5-yl)phenyl)-4-(2-(2-(dimethylamino)ethoxy)acetamido)-N-((trans-4-(4-methoxy-3-methylphenyl)cyclohexyl)methyl) cyclohexanecarboxamide]",≤ 250 nM
4,"COc1ccc([C@H]2CC[C@H](CN(c3cccc(-c4cnn(C5CC5)c4)c3)C(=O)[C@H]3CC[C@H](c4noc(=O)[nH]4)CC3)CC2)cc1C [Compound 34, trans-N-(3-(1-Cyclopropyl-1H-pyrazol-4-yl)phenyl)-N-((trans-4-(4-methoxy-3-methylphenyl)cyclohexyl)methyl)-4-(5-oxo-4,5-dihydro-1,2,4-oxadiazol-3-yl)cyclohexanecarboxamide]",≤ 250 nM

# More lines, now with the values ahead:
row,EC50,SMILES
1,≤ 250 nM,"COc1ccc([C@H]2CC[C@H](CN(c3cccc(-c4cnc(C5CC5)s4)c3)C(=O)[C@H]3CC[C@H](NC(=O)COCCO)CC3)CC2)cc1C [Compound 32.02, trans-N-(3-(2-Cyclopropylthiazol-5-yl)phenyl)-4-(2-(2-hydroxyethoxy)acetamido)-N-((trans-4-(4-methoxy-3-methylphenyl)cyclohexyl)methyl) cyclohexanecarboxamide]"
2,250 to 1000 nM,"COc1ccc([C@H]2CC[C@H](CN(c3cccc(-c4cnc(C5CC5)s4)c3)C(=O)[C@H]3CC[C@H](NC(=O)COCCN)CC3)CC2)cc1C [Compound 32.05, trans-4-(2-(2-Aminoethoxy)acetamido)-N-(3-(2-cyclopropylthiazol-5-yl)phenyl)-N-((trans-4-(4-methoxy-3-methylphenyl)cyclohexyl)methyl) cyclohexanecarboxamide]"
3,≥ 1000 nM,"CNCCOCC(=O)N[C@H]1CC[C@H](C(=O)N(C[C@H]2CC[C@H](c3ccc(OC)c(C)c3)CC2)c2cccc(-c3cnc(C4CC4)s3)c2)CC1 [Compound 32.06, trans-N-(3-(2-Cyclopropylthiazol-5-yl)phenyl)-N-((trans-4-(4-methoxy-3-methylphenyl)cyclohexyl)methyl)-4-(2-(2-(methylamino)ethoxy)acetamido) cyclohexanecarboxamide]"
4,≤ 250 nM,"COc1ccc([C@H]2CC[C@H](CN(c3cccc(-c4cnc(C5CC5)s4)c3)C(=O)[C@H]3CC[C@H](c4nnn[nH]4)CC3)CC2)cc1C [Compound 33, trans-N-(3-(2-Cyclopropylthiazol-5-yl)phenyl)-N-((trans-4-(4-methoxy-3-methylphenyl)cyclohexyl)methyl)-4-(2H-tetrazol-5-yl)cyclohexanecarboxamide]"
5,≤ 250 nM,"COc1ccc([C@H]2CC[C@H](CN(c3cccc(-c4cnn(C5CC5)c4)c3)C(=O)[C@H]3CC[C@H](c4nnn[nH]4)CC3)CC2)cc1C [Compound 33.01, trans-N-(3-(1-Cyclopropyl-1H-pyrazol-4-yl)phenyl)-N-((trans-4-(4-methoxy-3-methylphenyl)cyclohexyl)methyl)-4-(2H-tetrazol-5-yl) cyclohexanecarboxamide]"

# — patent US20220089575A1, “FARNESOID X RECEPTOR AGONISTS AND USES THEREOF” (Metacrine, Inc., priority 2017, published 2022)
